Our source for the IC50 values is patent US11332459B2 (TEIJIN PHARMA LIMITED, priority 2017, dated 2022).

Molecules are shown by their SMILES. pIC50: −log10 of the molar value. Structures can show the parent of a compound that is named as a salt.

The assay concerns the target T1, human TRPC6 (Homo sapiens, UniProt Q9Y210).
T1 construct: expressed in transfected cells
T1 sequence (Q9Y210 1-931): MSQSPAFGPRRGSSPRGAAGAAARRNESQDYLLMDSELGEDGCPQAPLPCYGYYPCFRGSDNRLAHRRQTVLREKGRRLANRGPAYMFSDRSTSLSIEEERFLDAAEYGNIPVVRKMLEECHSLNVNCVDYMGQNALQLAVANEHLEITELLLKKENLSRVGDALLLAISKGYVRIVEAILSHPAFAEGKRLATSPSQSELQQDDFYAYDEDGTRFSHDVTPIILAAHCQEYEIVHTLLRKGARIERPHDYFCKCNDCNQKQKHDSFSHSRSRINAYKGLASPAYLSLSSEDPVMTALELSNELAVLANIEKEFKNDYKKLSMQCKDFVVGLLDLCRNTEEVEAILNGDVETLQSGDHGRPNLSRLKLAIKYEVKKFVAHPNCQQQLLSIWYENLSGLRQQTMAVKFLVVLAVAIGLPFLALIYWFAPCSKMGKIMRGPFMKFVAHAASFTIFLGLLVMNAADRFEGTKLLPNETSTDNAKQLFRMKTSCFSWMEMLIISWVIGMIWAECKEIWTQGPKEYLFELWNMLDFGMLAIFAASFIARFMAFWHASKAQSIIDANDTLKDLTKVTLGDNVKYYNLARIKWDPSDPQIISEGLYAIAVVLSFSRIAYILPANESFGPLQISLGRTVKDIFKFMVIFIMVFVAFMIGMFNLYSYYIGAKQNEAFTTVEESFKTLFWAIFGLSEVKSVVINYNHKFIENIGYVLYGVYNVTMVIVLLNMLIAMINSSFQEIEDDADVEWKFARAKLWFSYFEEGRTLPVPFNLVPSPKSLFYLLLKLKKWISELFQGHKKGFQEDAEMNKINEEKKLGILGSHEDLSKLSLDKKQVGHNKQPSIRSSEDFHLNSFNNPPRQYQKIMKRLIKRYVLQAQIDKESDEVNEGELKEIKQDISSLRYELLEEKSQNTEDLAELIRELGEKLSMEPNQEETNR
Put plainly: TRPC6 calcium flux assay (FLIPR, OAG-stimulated calcium influx). It is filed as cell-based. To be noted: HEK293 cells stably transfected with human TRPC6, read-out: hTRPC6 Potency. In outline:
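HEK293 cells stably expressing human TRPC6, loaded with calcium dye 90–120 min at RT, then given compound for 25 min before OAG (50 uM final, 0.5% DMSO) in HEPES buffer pH 7.2 with 2 mM CaCl2. Background-subtracted FLIPR peak over 180 s normalized to OAG vs buffer; IC50 from dose plot.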
For the molecule `N#Cc1ccc(Cn2c(N3CC[C@@](O)(CN)C3)nc3ccccc32)cc1` [Example 176, (R)-4-((2-(3-(aminomethyl)-3-hydroxypyrrolidin-1-yl)-1H-benzo[d]imidazol-1-yl)methyl)benzonitrile 2,2,2-trifluoroacetate], the pIC50 is 5.63.

Take `N#Cc1ccc(Cn2c(N3CC[C@@](F)(CN)C3)nc3ccccc32)cc1` [Example 174, (R)-4-((2-(3-(aminomethyl)-3-fluoropyrrolidin-1-yl)-1H-benzo[d]imidazol-1-yl)methyl)benzonitrile 2,2,2-trifluoroacetate]: the pIC50 was 6.25.

For the molecule `N#Cc1ccc(Cn2c(N3CCC(F)(F)[C@H](N)C3)nc3cc(Cl)ccc32)nc1` [Example 13, (R)-6-((2-(3-amino-4,4-difluoropiperidin-1-yl)-5-chloro-1H-benzo[d]imidazol-1-yl)methyl)nicotinonitrile], the pIC50 is 8.16.

In the case of `CC1(C#N)CCN(C(=O)Cn2c(N3CC[C@@H](F)[C@H](N)C3)nc3cc(F)c(F)cc32)CC1` [Example 629, 1-(2-(2-((3R,4R)-3-amino-4-fluoropiperidin-1-yl)-5,6-difluoro-1H-benzo[d]imidazol-1-yl)acetyl)-4-methylpiperidine-4-carbonitrile], the pIC50 was 6.80.

On to `N#Cc1ccc(Cn2c(N3CCC[C@@H](N)C3)nc3ccccc32)c(Cl)c1` [Example 394, (R)-4-((2-(3-aminopiperidin-1-yl)-1H-benzo[d]imidazol-1-yl)methyl)-3-chlorobenzonitrile], for which the pIC50 was 6.14.

Turning to `N#Cc1ccc2c(c1)nc(N1CC[C@H](F)[C@H](N)C1)n2Cc1ncc(Cl)cn1` [Example 204, 2-((3R,4S)-3-amino-4-fluoropiperidin-1-yl)-1-((5-chloropyrimidin-2-yl)methyl)-1H-benzo[d]imidazole-5-carbonitrile], the pIC50 is 8.31.

As to `N[C@@H]1CN(c2nc3cc(F)c(F)cc3n2Cc2ccc(F)cc2C(F)(F)F)CC[C@H]1F` [Example 356, (3R,4R)-1-(5,6-difluoro-1-(4-fluoro-2-(trifluoromethyl)benzyl)-1H-benzimidazol-2-yl)-4-fluoro-3-piperidinamine], the pIC50 was 6.62.

With `CO[C@@H]1CCN(c2nc3ccc(F)cc3n2CC(=O)N(C)CC(F)(F)F)C[C@H]1N` [Example 485, 2-(2-((3R,4R)-3-amino-4-methoxypiperidin-1-yl)-6-fluoro-1H-benzo[d]imidazol-1-yl)-N-methyl-N-(2,2,2-trifluoroethyl)acetamide], the pIC50 is below 5.43.

As to `N[C@@H]1CN(c2nc3ccc(Cl)cc3n2CC(=O)N2CCOCC2)CC[C@H]1F` [Example 495, 2-(2-((3R,4R)-3-amino-4-fluoropiperidin-1-yl)-6-chloro-1H-benzo[d]imidazol-1-yl)-1-morpholinoethanone], the pIC50 is 7.90.

With `CS(=O)(=O)CC1CCN(C(=O)Cn2c(N3CC[C@@H](F)[C@H](N)C3)nc3cc(F)c(F)cc32)C1` (stereo partly drawn) [Example 645, 2-(2-((3R,4R)-3-amino-4-fluoropiperidin-1-yl)-5,6-difluoro-1H-benzo[d]imidazol-1-yl)-1-(3-((methylsulfonyl)methyl)pyrrolidin-1-yl)ethanone], the pIC50 is 5.64.

Take `N[C@@H]1CN(c2nc3ccccc3n2Cc2ncc(Br)cn2)CC[C@H]1F` [Example 192, (3R,4R)-1-(1-((5-bromopyrimidin-2-yl)methyl)-1H-benzo[d]imidazol-2-yl)-4-fluoropiperidin-3-amine]: the pIC50 was 8.76.

With `C[C@@H](CC#N)NC(=O)Cn1c(N2CC[C@@H](F)[C@H](N)C2)nc2ccc(F)cc21` [Example 669, 2-(2-((3R,4R)-3-amino-4-fluoropiperidin-1-yl)-6-fluoro-1H-benzo[d]imidazol-1-yl)-N-((S)-1-cyanopropan-2-yl)acetamide], the pIC50 is 6.05.

As for `N[C@@H]1CN(c2nc3cc(F)ccc3n2Cc2ncc(Cl)cn2)CC[C@H]1O` [Example 206, (3R,4R)-3-amino-1-(1-((5-chloropyrimidin-2-yl)methyl)-5-fluoro-1H-benzo[d]imidazol-2-yl)piperidin-4-ol], the pIC50 is 7.91.

As to `N#Cc1ccc(Cn2c(N3C[C@@H](N)[C@H](c4ccccc4)C3)nc3ccccc32)cc1` (racemic) [Example 165, 4-((2-((3S,4R)-3-amino-4-phenylpyrrolidin-1-yl)-1H-benzo[d]imidazol-1-yl)methyl)benzonitrile & 4-((2-((3R,4S)-3 amino-4-phenylpyrrolidin-1-yl)-1H-benzo[d]imidazol-1-yl)methyl)benzonitrile], the pIC50 is 5.69.

For `N[C@@H]1CN(c2nc3cc(F)c(F)cc3n2CC(=O)N2CCOCC2)CC[C@H]1F` [Example 276, 2-(2-((3R,4R)-3-amino-4-fluoro-1-piperidinyl)-5,6-difluoro-1H-benzimidazol-1-yl)-1-(4-morpholinyl)ethanone], the pIC50 is 7.37.

In the case of `CN(CC(F)(F)F)C(=O)Cn1c(N2CC[C@@H]3OCCN[C@H]3C2)nc2cc(F)ccc21` [Example 493, 2-(5-fluoro-2-((4aS,8aS)-hexahydro-2H-pyrido[4,3-b][1,4]oxazin-6(5H)-yl)-1H-benzo[d]imidazol-1-yl)-N-methyl-N-(2,2,2-trifluoroethyl)acetamide], the pIC50 was below 5.43.

For the molecule `N[C@@H]1CN(c2nc3cc(F)c(F)cc3n2Cc2ccccc2Cl)CC[C@H]1F` [Example 354, (3R,4R)-1-(1-(2-chlorobenzyl)-5,6-difluoro-1H-benzimidazol-2-yl)-4-fluoro-3-piperidinamine], the pIC50 was 6.88.

For `N#Cc1ccc(Cn2c(N3CC[C@H](CN)C3)nc3ccccc32)nc1` [Example 80, (R)-6-((2-(3-(aminomethyl)pyrrolidin-1-yl)-1H-benzo[d]imidazol-1-yl)methyl)nicotinonitrile hydrochloride], the pIC50 was 7.10.

With `N#Cc1ccc(Cn2c(N3CC[C@@H](F)[C@H](N)C3)nc3ccc(Cl)cc32)nc1` [Example 6, 6-((2-((3R,4R)-3-amino-4-fluoropiperidin-1-yl)-6-chloro-1H-benzo[d]imidazol-1-yl)methyl)nicotinonitrile], the pIC50 is 9.40.

As to `N#Cc1cnc(Cn2c(N3CC[C@@H](F)[C@H](N)C3)nc3ccccc32)cn1` [Example 202, 5-((2-((3R,4R)-3-amino-4-fluoropiperidin-1-yl)-1H-benzo[d]imidazol-1-yl)methyl)pyrazine-2-carbonitrile], the pIC50 was 8.67.

As to `C[C@H](c1ccc(C#N)cn1)n1c(N2CCC[C@H](N)C2)nc2ccccc21` [Example 295, 6-((R)-1-(2-((S)-3-aminopiperidin-1-yl)-1H-benzo[d]imidazol-1-yl)ethyl)nicotinonitrile hydrochloride], the pIC50 is 8.29.

On to `NC(=O)c1cnc(Cn2c(N3CC[C@H](F)[C@H](N)C3)nc3cc(C(F)(F)F)ccc32)cn1` [Example 123, 5-((2-((3R,4S)-3-amino-4-fluoro-1-piperidinyl)-5-(trifluoromethyl)-1H-benzimidazol-1-yl)methyl)-2-pyrazinecarboxamide], for which the pIC50 was 6.60.

On to `N#Cc1ccc(Cn2c(N3CC[C@@H]4CCN[C@@H]4C3)nc3ccccc32)nc1` [Example 24, 6-((2-((3aS,7aS)-hexahydro-1H-pyrrolo[2,3-c]pyridin-6(2H)-yl)-1H-benzo[d]imidazol-1-yl)methyl)nicotinonitrile], for which the pIC50 is 6.84.

On to `C[C@H](c1cc(Cl)ccc1Cl)n1c(N2CC[C@@H](F)[C@H](N)C2)nc2cc(F)c(F)cc21` [Example 328, (3R,4R)-1-(1-((1R)-1-(2,5-dichlorophenyl)ethyl)-5,6-difluoro-1H-benzimidazol-2-yl)-4-fluoro-3-piperidinamine], for which the pIC50 was below 5.43.

For `N[C@@H]1CN(c2nc3cc(F)c(F)cc3n2CC(=O)N2CC3(C2)CC(F)(F)C3)CC[C@H]1F` [Example 430, 2-(2-((3R,4R)-3-amino-4-fluoropiperidin-1-yl)-5,6-difluoro-1H-benzo[d]imidazol-1-yl)-1-(6,6-difluoro-2-azaspiro[3.3]heptan-2-yl)ethanone], the pIC50 is 6.06.

As to `N#Cc1ccc(Cn2c(N3CC[C@@H](F)[C@H](N)C3)nc3ccccc32)nc1` [Example 38, 6-((2-((3R,4R)-3-amino-4-fluoropiperidin-1-yl)-1H-benzo[d]imidazol-1-yl)methyl)nicotinonitrile], the pIC50 is 9.14.

As for `C[C@H](c1ccc(C#N)cn1)n1c(N2CC[C@H]3OCCN[C@@H]3C2)nc2cc(F)cc(F)c21` [Example 271, 6-((1R)-1-(5,7-difluoro-2-((4aR,8aR)-hexahydro-2H-pyrido[4,3-b][1,4]oxazin-6(5H)-yl)-1H-benzimidazol-1-yl)ethyl)-3-pyridinecarbonitrile], the pIC50 was 6.80.
